Reference: US6677310B1, “Ring-expanded nucleosides and nucleotides” (Nabi, priority 1999, dated 2004)
Like-named read-outs stand apart in the source and are kept apart here.

What was measured:
SK-OV-3 = experiment: SRB anti-cancer assay, Ovarian Cancer; format: cell-based, human; details: SK-OV-3 (Ovarian Cancer), 48 h; for CC50: read-out: LC50 (the source's name)
[1] = system: panel of cancer cell lines; experiment: In vitro anti-cancer assay, panel of cancer cell lines (sulforhodamine B); format: cell-based, human; details: leukemia, non-small cell lung, colon, CNS, melanoma, ovarian, renal, prostate and breast cancer cell lines; read-out: GI50 values, range over the panel
SNB-19 = experiment: SRB anti-cancer assay, CNS Cancer; format: cell-based, human; details: SNB-19 (CNS Cancer), 48 h; for CC50: read-out: LC50 (the source's name)
SF-295 = experiment: SRB anti-cancer assay, CNS Cancer; format: cell-based, human; details: SF-295 (CNS Cancer), 48 h; for CC50: read-out: LC50 (the source's name)
MCF7 = experiment: SRB anti-cancer assay, Breast Cancer; format: cell-based, human; details: 48 h
COLO 205 = experiment: SRB anti-cancer assay, Colon Cancer; format: cell-based, human; details: COLO 205 (Colon Cancer), 48 h
HCT-15 = experiment: SRB anti-cancer assay, Colon Cancer; format: cell-based, human; details: HCT-15 (Colon Cancer), 48 h; for CC50: read-out: LC50 (the source's name)
HCC-2998 = experiment: SRB anti-cancer assay, Colon Cancer; format: cell-based, human; details: HCC-2998 (Colon Cancer), 48 h; for CC50: read-out: LC50 (the source's name)
NCI-H23 = format: cell-based, human; details: NCI-H23 (Non-Small Cell Lung Cancer), 48 h; for CC50: read-out: LC50 (the source's name)
RPMI-8226 = experiment: SRB anti-cancer assay, Leukemia; format: cell-based, human; details: RPMI-8226 (Leukemia), 48 h; for CC50: read-out: LC50 (the source's name)
T-47D = experiment: SRB anti-cancer assay, Breast Cancer; format: cell-based, human; details: T-47D (Breast Cancer), 48 h; for CC50: read-out: LC50 (the source's name)
HS 578T = experiment: SRB anti-cancer assay, Breast Cancer; format: cell-based, human; details: HS 578T (Breast Cancer), 48 h
NCI/ADR-RES = experiment: SRB anti-cancer assay, Breast Cancer; format: cell-based, human; details: 48 h; for CC50: read-out: LC50 (the source's name)
PC-3 = experiment: SRB anti-cancer assay, Prostate Cancer; format: cell-based, human; details: PC-3 (Prostate Cancer), 48 h
EKVX = format: cell-based, human; details: EKVX (Non-Small Cell Lung Cancer), 48 h; for CC50: read-out: LC50 (the source's name)
SK-MEL-28 = experiment: SRB anti-cancer assay, Melanoma; format: cell-based, human; details: SK-MEL-28 (Melanoma), 48 h
[2] = system: herpes simplex virus (HSV)-1; experiment: Antiviral test against HSV-1; format: cell-based
Protocol: (§1) These compounds were also tested for their effects on HIV (Weislow, O. , et al., J. Natl. Cancer Inst., 81:577-586, 1989), herpes simplex virus (HSV)-1, HSV-2, cytomegalovirus (CMV), Varicella Zoster virus (VZV) and Epstein-Barr virus (EBV) replication (National Institute of Allergy and Infectious Diseases (NIAID), NIH, Bethesda, Md.).

2.2.15 cells = experiment: Toxicity in confluent 2.2.15 cells (neutral red dye uptake); format: cell-based, human
Protocol: Anti-HBV activity and the toxicity against confluent 2.2.15 cells were determined by the previously described procedure (Korba, B. E., et al. Antivir. Res., 19:55-70, 1992; Korba, B. E., et al. Antivir. Res., 15:217-228, 1991). Briefly, confluent cultures of HBV transfected 2.2.15 cells were maintained on either 96-well or 24-well flat-bottomed tissue culture plates in RPMI 1640 medium with 2% fetal bovine serum (FBS). The cells were treated with test compounds daily for nine consecutive days. […] Cellular toxicity against separate cultures of confluent 2.2.15 cells was measured after treatment with the compounds for nine days under identical culture conditions as those used for the antiviral assay (Korba, B. E., et al. Antivir. Res., 19:55-70, 1992). Uptake of neutral red dye by treated cells was compared with dye uptake by untreated control cells (Korba, B. E., et al. Antivir. Res., 19:55-70, 1992).

BT-549 = experiment: SRB anti-cancer assay, Breast Cancer; format: cell-based, human; details: BT-549 (Breast Cancer), 48 h
cytomegalovirus (CMV) = experiment: Antiviral test against CMV; format: cell-based
Protocol: as §1

[3] = system: HBV ribonucleic acids (RNA); experiment: HBV RNA levels in 2.2.15 cells (blot hybridization); format: cell-based, Hepatitis B virus; details: 10 μM, day 9, 2.2.15 cells
Protocol: Anti-HBV activity and the toxicity against confluent 2.2.15 cells were determined by the previously described procedure (Korba, B. E., et al. Antivir. Res., 19:55-70, 1992; Korba, B. E., et al. Antivir. Res., 15:217-228, 1991). Briefly, confluent cultures of HBV transfected 2.2.15 cells were maintained on either 96-well or 24-well flat-bottomed tissue culture plates in RPMI 1640 medium with 2% fetal bovine serum (FBS). The cells were treated with test compounds daily for nine consecutive days. The culture media were harvested on day 9 to quantify the amount of virion DNA. On day 10, the cells were lysed to quantify the amount of intracellular HBV replicative intermediates (RI). The quantification of virion DNA and the HBV RI were done by blot hybridization methods (Korba, B. E., et al. Antivir. Res., 19:55-70, 1992; Korba, B. E., et al. Antivir. Res., 15:217-228, 1991). Cellular toxicity against separate cultures of confluent 2.2.15 cells was measured after treatment with the compounds for nine days under identical culture conditions as those used for the antiviral assay (Korba, B. E., et al. Antivir. Res., 19:55-70, 1992). Uptake of neutral red dye by treated cells was compared with dye uptake by untreated control cells (Korba, B. E., et al. Antivir. Res., 19:55-70, 1992).
These compounds were evaluated for their ability to inhibit viral RNA synthesis in 2.2.15 cells. Since HBV uses host cellular RNA polymerase II during the transcription of viral RNA from the covalently closed circular HBV DNA during its replication, any effect on the synthesis of viral RNA by these compounds would mean interference with the cellular RNA polymerase which could lead to unacceptable cellular toxicity.

[4] = system: Varicella Zoster virus (VZV); experiment: Antiviral test against VZV; format: cell-based
Protocol: as §1

[5] = read-out: LC50 (the source's name)

## N=c1nc(N)c2ncn([C@@H]3O[C@H](COC(=O)c4ccccc4)[C@@H](OC(=O)c4ccccc4)[C@H]3OC(=O)c3ccccc3)c2c(N)n1 [4,8-Diamino-6H-6-imino-1(2′,3′,5′-tri-O-benzoyl-β-D-ribofuranosyl)imidazo[4,5-e][1,3]diazepine]
SK-OV-3
  GI50: 16.3 µM
  TGI: 30.5 µM
  CC50: 57 µM
[1]
  GI50: 0.1 to 10 µM
SNB-19
  GI50: 14.7 µM
  TGI: 31.6 µM
  CC50: 68.2 µM
SF-295
  GI50: 6.03 µM
  TGI: 19.6 µM
  CC50: 49.2 µM
MCF7
  GI50: 1.47 µM
  TGI: 3.12 µM
MCF7; [5]
  CC50: 6.61 µM
COLO 205
  GI50: 1.49 µM
  LC50: 5.55 µM
  TGI: 2.87 µM
HCT-15
  GI50: 5.77 µM
  TGI: 19.5 µM
  CC50: 50.8 µM
HCC-2998
  GI50: 3.18 µM
  TGI: 6.41 µM
  CC50: 19.2 µM
NCI-H23
  GI50: 12.3 µM
  TGI: 27.7 µM
  CC50: 62.3 µM
RPMI-8226
  GI50: 2.53 µM
  TGI: 7.42 µM
  CC50: > 100 µM
T-47D
  GI50: 5.14 µM
  TGI: 18.9 µM
  CC50: 48.8 µM
HS 578T
  GI50: 15.8 µM
  TGI: 40.1 µM
HS 578T; [5]
  CC50: > 100 µM
NCI/ADR-RES
  GI50: 13.9 µM
  TGI: 31.5 µM
  CC50: 71.4 µM
PC-3
  GI50: 4.46 µM
  TGI: 16.6 µM
EKVX
  GI50: 10.9 µM
  TGI: 29.6 µM
  CC50: 80.4 µM
SK-MEL-28
  GI50: 10.4 µM
  LC50: 65.8 µM
  TGI: 26.2 µM

## N=c1[nH]c(=O)c2ncn([C@@H]3O[C@H](CO)[C@@H](O)[C@H]3O)c2c(=O)[nH]1 [Compound 14-1, 6-Imino-6H-1-β-D-ribofuranosyl-4,5,7,8-tetrahydroimidazo[4,5-e][1,3]diazepine-4,8-dione]
SK-OV-3
  GI50: > 100 µM
  TGI: >100 µM
  CC50: > 100 µM
[2]
  antiviral activity against HSV-1: no antiviral activity
SNB-19
  GI50: > 100 µM
  TGI: >100 µM
  CC50: > 100 µM
SF-295
  GI50: > 100 µM
  TGI: >100 µM
  CC50: > 100 µM
COLO 205
  GI50: > 100 µM
  LC50: > 100 µM
  TGI: >100 µM
2.2.15 cells; 2.2.15 cells, Example 13, read-out: CC50 (cellular toxicity)
  CC50: 2400 µM
2.2.15 cells; confluent 2.2.15 cells, 9 days, neutral red dye uptake, read-out: CC50
  CC50: 2430 µM
BT-549
  GI50: > 100 µM
  TGI: >100 µM
BT-549; [5]
  CC50: > 100 µM
HCT-15
  GI50: > 100 µM
  TGI: >100 µM
  CC50: > 100 µM
HCC-2998
  GI50: > 100 µM
  TGI: >100 µM
  CC50: > 100 µM
NCI-H23
  GI50: > 100 µM
  TGI: >100 µM
  CC50: > 100 µM
RPMI-8226
  GI50: > 100 µM
  TGI: >100 µM
  CC50: > 100 µM
T-47D
  GI50: > 100 µM
  TGI: >100 µM
  CC50: > 100 µM
Cytomegalovirus (CMV)
  antiviral activity against CMV: no antiviral activity
NCI/ADR-RES
  GI50: > 100 µM
  TGI: >100 µM
  CC50: > 100 µM
EKVX
  GI50: > 100 µM
  TGI: >100 µM
  CC50: > 100 µM
SK-MEL-28
  GI50: > 100 µM
  LC50: > 100 µM
  TGI: >100 µM
[3]
  2.1 Kb RNA, percentage of control: 96 ± 7%
  3.6 Kb RNA, percentage of control: 89 ± 9%
[4]
  antiviral activity against VZV: no antiviral activity
